Values quoted from earlier work in patent US20090137633A1, “Stable pharmaceutical composition of rabeprazole” (priority 2003, published 2009).
Structures can show the parent of a compound that is named as a salt.

Columns and labels:
[1] = biological target: T1, gastric H^+ K^+ ATPase enzyme system (proton pump) (Homo sapiens, UniProt P20648); settings: in vivo
T1 construct: at the secretory surface of the gastric parietal cell; host or cells: gastric parietal cell (in vivo)
T1 sequence (P20648 whole entry): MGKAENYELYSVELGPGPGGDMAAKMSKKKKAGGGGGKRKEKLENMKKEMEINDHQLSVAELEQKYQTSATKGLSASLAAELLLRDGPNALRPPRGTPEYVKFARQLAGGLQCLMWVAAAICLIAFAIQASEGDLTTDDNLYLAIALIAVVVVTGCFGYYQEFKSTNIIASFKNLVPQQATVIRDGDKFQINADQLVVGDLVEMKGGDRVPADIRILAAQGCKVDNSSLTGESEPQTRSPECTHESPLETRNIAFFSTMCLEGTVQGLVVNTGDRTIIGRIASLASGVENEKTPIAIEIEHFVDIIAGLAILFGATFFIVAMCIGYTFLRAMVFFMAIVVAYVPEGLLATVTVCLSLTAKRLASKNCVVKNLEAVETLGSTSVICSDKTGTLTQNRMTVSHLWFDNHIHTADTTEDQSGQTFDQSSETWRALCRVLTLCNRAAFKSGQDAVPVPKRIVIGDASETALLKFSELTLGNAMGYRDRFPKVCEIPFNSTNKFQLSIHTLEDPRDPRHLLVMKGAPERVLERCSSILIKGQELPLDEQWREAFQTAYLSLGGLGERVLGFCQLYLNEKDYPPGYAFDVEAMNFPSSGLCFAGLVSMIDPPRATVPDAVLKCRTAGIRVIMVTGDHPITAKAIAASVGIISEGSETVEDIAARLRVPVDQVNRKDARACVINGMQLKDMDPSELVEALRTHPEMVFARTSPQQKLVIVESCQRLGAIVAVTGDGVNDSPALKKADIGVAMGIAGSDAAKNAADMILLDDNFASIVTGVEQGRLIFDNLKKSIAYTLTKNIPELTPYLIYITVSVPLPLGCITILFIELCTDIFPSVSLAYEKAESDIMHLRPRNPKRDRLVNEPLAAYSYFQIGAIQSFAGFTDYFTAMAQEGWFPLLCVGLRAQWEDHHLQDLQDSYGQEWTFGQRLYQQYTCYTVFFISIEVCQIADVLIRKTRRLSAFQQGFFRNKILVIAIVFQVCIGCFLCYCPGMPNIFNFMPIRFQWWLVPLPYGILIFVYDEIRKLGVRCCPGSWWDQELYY
T1 sequence (P51164 whole entry partner): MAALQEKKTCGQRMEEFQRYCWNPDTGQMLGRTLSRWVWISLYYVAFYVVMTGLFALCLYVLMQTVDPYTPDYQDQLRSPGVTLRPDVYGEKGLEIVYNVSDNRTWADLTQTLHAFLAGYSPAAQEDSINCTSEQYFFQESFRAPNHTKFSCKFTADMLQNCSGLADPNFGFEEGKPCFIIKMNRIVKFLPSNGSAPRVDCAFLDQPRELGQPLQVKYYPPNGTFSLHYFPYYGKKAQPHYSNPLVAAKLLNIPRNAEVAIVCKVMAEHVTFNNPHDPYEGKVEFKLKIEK

Structure (SMILES): COCCCOc1ccnc(C[S+]([O-])c2nc3ccccc3[nH]2)c1C (centres unmarked) [rabeprazole, 2-{[[4-(3-methoxypropoxy)-3-methyl]-2-pyridinyl]sulfinyl}-1H-benzimidazole sodium salt]
- oral bioavalability: about 50%
- effect on intragastric pH in relation to cytochrome P450 2C19 genotype [1]: unaffected
